The test system of one assay is WT C57Bl6/N mice. Nature of the assay: open field locomotor activity time-course in mice. The assay is classed as in vivo. The note with it: for duration of locomotor / psychomotor effects: open field time-course, i.p.; for potency, cumulative distance traveled over 60 min post i.p. injection: compared with MPH, cocaine, R-αPVP, R-MDPV and R-pyrovalerone.
The target in assay [1] is T1, DAT (Homo sapiens, UniProt Q01959). Nature of the assay: saturation of [3H]DA uptake in presence of inhibitor. The assay is classed as cell-based. The note with it: 1 min uptake; cocaine and R-αPVP 250, 500, 1,000 nM; S-αPVP 5, 10, 20 nM.
T1 sequence (Q01959 whole entry): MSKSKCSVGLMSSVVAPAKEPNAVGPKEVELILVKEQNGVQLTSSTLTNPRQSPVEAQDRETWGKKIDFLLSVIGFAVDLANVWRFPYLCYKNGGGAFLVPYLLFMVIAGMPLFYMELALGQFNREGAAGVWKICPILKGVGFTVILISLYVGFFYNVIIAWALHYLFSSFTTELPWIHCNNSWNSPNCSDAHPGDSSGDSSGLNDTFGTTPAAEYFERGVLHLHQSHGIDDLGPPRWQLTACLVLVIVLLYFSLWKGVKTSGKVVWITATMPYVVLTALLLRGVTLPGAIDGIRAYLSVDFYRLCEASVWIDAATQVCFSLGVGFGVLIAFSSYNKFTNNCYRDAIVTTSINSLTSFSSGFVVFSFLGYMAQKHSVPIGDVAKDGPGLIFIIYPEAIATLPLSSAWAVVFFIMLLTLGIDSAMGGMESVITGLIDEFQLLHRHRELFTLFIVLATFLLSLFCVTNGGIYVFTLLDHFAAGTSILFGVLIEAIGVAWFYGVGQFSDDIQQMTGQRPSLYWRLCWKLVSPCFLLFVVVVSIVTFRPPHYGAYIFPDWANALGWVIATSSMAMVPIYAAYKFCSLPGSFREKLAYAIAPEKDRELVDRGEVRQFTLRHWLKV
For assay [2], the target named is T1, DAT. The assay is classed as binding. The note with it: DAT membranes.
Assay [3] has as its target T1, DAT. Nature of the assay: electrophysiological examination of DAT-mediated currents. The note with it: HEK293 cells expressing DAT, whole-cell. The assay is classed as cell-based.

Regarding `COC(=O)C(c1ccccc1)C1CCCCN1` (stereo not drawn) [MPH, methylphenidate], in the assay on WT C57Bl6/N mice, the “duration of locomotor / psychomotor effects” value is “much shorter duration of locomotor effects”.
For `CCCC(C(=O)c1ccc2c(c1)OCO2)N1CCCC1` (stereo not drawn) [R-MDPV, 3,4-methylenedioxypyrovalerone], the “duration of locomotor / psychomotor effects” value with WT C57Bl6/N mice was “much shorter duration of locomotor effects”.
Take `CCC[C@H](C(=O)c1ccc(C)cc1)N1CCCC1` [R-pyrovalerone, pyrovalerone]: in the assay on WT C57Bl6/N mice, the “duration of locomotor / psychomotor effects” value is “much shorter duration of locomotor effects”.
For the molecule `CCCC(C(=O)c1ccc2c(c1)OCO2)N1CCCC1` (stereo not drawn) [S-MDPV, 3,4-methylenedioxypyrovalerone], in the assay on WT C57Bl6/N mice, the “potency, cumulative distance traveled over 60 min post i.p. injection” value is “at least tenfold more potent” and the “duration of locomotor / psychomotor effects” value is recorded as “prolonged psychomotor effects”.
In the case of `CCC[C@@H](C(=O)c1ccc(C)cc1)N1CCCC1` [S-pyrovalerone, pyrovalerone], in the assay on WT C57Bl6/N mice, the “potency, cumulative distance traveled over 60 min post i.p. injection” value was “at least tenfold more potent” and the “duration of locomotor / psychomotor effects” value is recorded as “prolonged psychomotor effects”.
With `COC(=O)[C@H]1[C@@H](OC(=O)c2ccccc2)C[C@@H]2CC[C@H]1N2C` [cocaine], the “duration of locomotor / psychomotor effects” value with WT C57Bl6/N mice was “much shorter duration of locomotor effects”. Further, on DAT [1], the “effect on Km of DA uptake” value is “increases Km in dose-dependent manner” and the “effect on Vmax of DA uptake” value is given as “does not decrease Vmax”. For the same molecule, the “effect on dissociation rate of [3H]WIN35428” value on DAT [2] is on record as “not affected”.
For the molecule `NCCc1ccc(O)c(O)c1` [dopamine], the “DAT-mediated inward currents (substrate activity)” value at DAT [3] is given as “robust inward currents”.
